Reference: PubChem BioAssay AID284 (DTP/NCI, 2004)
Where “and” joins values, the source holds several entries; their conditions need not be identical. Equal entries are not always repeated. Inconclusive results and toxic doses are left out. Starred links: 1 amine or outer side, 2 acyl side, 3 side chain; linkers in the order of their positions; H or OH if unused. Positions of bridges follow the written chain, without caps; N, C: chain ends. Non-standard residues stand in square brackets, D forms with d. Residues, ends and D or L forms follow the SMILES beside them. Chains are numbered I, II in the order given. Actinocin(9to1) = Cc1c2oc3c(C)ccc(C(=O)[*:1])c3nc-2c(C(=O)[*:2])c(N)c1=O; aThr = C[C@H](O)[C@H](N)C(=O)O; NMeV = CN[C@H](C(=O)O)C(C)C; Sar = CNCC(=O)O

Tested on: BDF1 mice, L1210/MTX-resistant leukemia ip, survival T/C
Assay: NCI In Vivo Anticancer Drug Screen. Data for tumor model L1210 Leukemia resistant to Methotrexate; NSC 740 (intraperitoneal) in B6D2F1 (BDF1) mice
Conditions: endpoint: mean survival time, higher = longer survival
Description: The antitumor activity of compounds was measured in mice bearing transplantable tumors. Survival or tumor size were measured and the results are expressed as the measurement made in the treated group (T) divided by the measurement made in the vehicle treated control group (C). The tumor model used in this assay is L1210 Leukemia resistant to Methotrexate; NSC 740 (intraperitoneal) in B6D2F1 (BDF1) mice

[1] = dose: 5.0 mg/kg/injection, schedule: Q01DX Z (ip), vehicle: carboxymethylcellulose (CMC)
[2] = dose: 7.5 mg/kg/injection, schedule: Q01DX Z (ip), vehicle: carboxymethylcellulose (CMC)
[3] = dose: 10.0 mg/kg/injection, schedule: Q01DX Z (ip), vehicle: carboxymethylcellulose (CMC)
[4] = dose: 50.0 mg/kg/injection, schedule: Q01DX Z (ip), vehicle: carboxymethylcellulose (CMC)
[5] = dose: 0.75 mg/kg/injection, schedule: Q01DX Z (ip), vehicle: saline
[6] = dose: 1.5 mg/kg/injection, schedule: Q01DX Z (ip), vehicle: saline
[7] = dose: 3.0 mg/kg/injection, schedule: Q01DX Z (ip), vehicle: saline
[8] = dose: 50.0 micrograms/kg/injection, schedule: Q01DX Z (ip), vehicle: saline
[9] = dose: 25.0 mg/kg/injection, schedule: Q01DX Z (ip), vehicle: carboxymethylcellulose (CMC)
[10] = dose: 2.0 mg/kg/injection, schedule: Q01DX010 (ip), vehicle: other
[11] = dose: 4.0 mg/kg/injection, schedule: Q01DX010 (ip), vehicle: other
[12] = dose: 8.0 mg/kg/injection, schedule: Q01DX010 (ip), vehicle: other
[13] = dose: 15.0 mg/kg/injection, schedule: Q01DX Z (ip), vehicle: carboxymethylcellulose (CMC)

SMILES: CC(CCC(C)OS(C)(=O)=O)OS(C)(=O)=O (stereo not drawn)
- T/C (dose: 3.75 mg/kg/injection, schedule: Q01DX Z (ip), vehicle: carboxymethylcellulose (CMC)): 86 % of control
- T/C [1]: 114 % of control
- T/C [2]: 106 % of control
- T/C [3]: 91 % of control
- T/C (dose: 12.5 mg/kg/injection, schedule: Q01DX Z (ip), vehicle: carboxymethylcellulose (CMC)): 98 % of control
- T/C [4]: 88 % of control
- T/C (dose: 75.0 mg/kg/injection, schedule: Q01DX Z (ip), vehicle: carboxymethylcellulose (CMC)): 98 % of control

SMILES: Nc1nc(F)nc2c1ncn2C1OC(CO)C(O)C1O (stereo not drawn)
- T/C (dose: 0.25 mg/kg/injection, schedule: Q01DX Z (ip), vehicle: saline): 122 % of control
- T/C [5]: 115 % of control
- T/C [6]: 108 % of control
- T/C [7]: 104 % of control
- T/C (dose: 6.0 mg/kg/injection, schedule: Q01DX Z (ip), vehicle: saline): 86 % of control
- T/C (dose: 25.0 micrograms/kg/injection, schedule: Q01DX Z (ip), vehicle: saline): 91 % of control
- T/C [8]: 92 % of control
- T/C (dose: 100.0 micrograms/kg/injection, schedule: Q01DX Z (ip), vehicle: saline): 100 % of control
- T/C (dose: 210.0 micrograms/kg/injection, schedule: Q01DX Z (ip), vehicle: saline): 86 % of control

SMILES: N#CCSc1ncnc2nc[nH]c12
- T/C [9]: 101 % of control
- T/C [4]: 120 % of control
- T/C (dose: 100.0 mg/kg/injection, schedule: Q01DX Z (ip), vehicle: carboxymethylcellulose (CMC)): 111 % of control

SMILES: CN(Cc1cnc2nc(N)nc(N)c2n1)c1ccc(C(=O)N[C@@H](CCC(=O)O)C(=O)O)cc1
- T/C (dose: 0.19 mg/kg/injection, schedule: Q01DX010 (ip), vehicle: other): 95 % of control
- T/C (dose: 0.38 mg/kg/injection, schedule: Q01DX010 (ip), vehicle: other): 100 % of control
- T/C (dose: 0.75 mg/kg/injection, schedule: Q01DX010 (ip), vehicle: other): 99 % of control
- T/C (dose: 0.75 mg/kg/injection, schedule: Q01DX Z (ip), vehicle: alkali diluted with saline): 120 % of control and 92 % of control
- T/C [5]: 95 % of control and 106 % of control
- T/C (dose: 1.5 mg/kg/injection, schedule: Q01DX010 (ip), vehicle: other): 100 % of control
- T/C (dose: 1.5 mg/kg/injection, schedule: Q01DX Z (ip), vehicle: alkali diluted with saline): 117 % of control and 92 % of control
- T/C [6]: 94 % of control and 100 % of control
- T/C (dose: 3.0 mg/kg/injection, schedule: Q01DX Z (ip), vehicle: alkali diluted with saline): 97 % of control
- T/C [7]: 87 % of control and 99 % of control
- T/C (dose: 4.0 mg/kg/injection, schedule: Q01DX Z (ip), vehicle: other): 91 % of control and 95 % of control

SMILES: O=C(Nc1ccc(C2=NCCCN2)cc1)c1ccc(NC(=O)c2ccc(C3=NCCCN3)cc2)cc1
- T/C [10]: 168 % of control
- T/C [11]: 218 % of control and 257 % of control
- T/C [12]: 181 % of control and 221 % of control

SMILES: CSc1ncnc2nc[nH]c12
- T/C [2]: 93 % of control
- T/C [13]: 86 % of control
- T/C (dose: 31.0 mg/kg/injection, schedule: Q01DX Z (ip), vehicle: carboxymethylcellulose (CMC)): 122 % of control
- T/C (dose: 62.5 mg/kg/injection, schedule: Q01DX Z (ip), vehicle: carboxymethylcellulose (CMC)): 112 % of control
- T/C (dose: 125.0 mg/kg/injection, schedule: Q01DX Z (ip), vehicle: carboxymethylcellulose (CMC)): 107 % of control

SMILES: Cn1cnc([N+](=O)[O-])c1Sc1nc(N)nc2nc[nH]c12
- T/C (dose: 1.0 mg/kg/injection, schedule: Q01DX Z (ip), vehicle: methylcellulose (MC)): 92 % of control
- T/C (dose: 2.0 mg/kg/injection, schedule: Q01DX Z (ip), vehicle: methylcellulose (MC)): 96 % of control
- T/C (dose: 4.0 mg/kg/injection, schedule: Q01DX Z (ip), vehicle: methylcellulose (MC)): 109 % of control

SMILES: C[C@H](N)C(=O)N[C@@H]1[C@H]2C(=C(O)C[C@@H](O)[C@@H]2O)C(=O)O[C@@H]1C
- T/C (dose: 500.0 mg/kg/injection, schedule: Q01DX Z (ip), vehicle: saline): 120 % of control
- T/C (dose: 600.0 mg/kg/injection, schedule: Q01DX Z (ip), vehicle: saline): 174 % of control and 187 % of control
- T/C (dose: 1000.0 mg/kg/injection, schedule: Q01DX Z (ip), vehicle: saline): 102 % of control and 110 % of control
- T/C (dose: 1200.0 mg/kg/injection, schedule: Q01DX Z (ip), vehicle: saline): 121 % of control and 122 % of control

SMILES: OCC1OC(n2cnc3c(=S)nc[nH]c32)C(O)C1O (stereo not drawn)
- T/C (dose: 20.0 mg/kg/injection, schedule: Q01DX010 (ip), vehicle: saline): 101 % of control and 102 % of control
- T/C (dose: 40.0 mg/kg/injection, schedule: Q01DX010 (ip), vehicle: saline): 91 % of control and 101 % of control
- T/C (dose: 80.0 mg/kg/injection, schedule: Q01DX010 (ip), vehicle: saline): 98 % of control
- T/C (dose: 160.0 mg/kg/injection, schedule: Q01DX010 (ip), vehicle: saline): 88 % of control and 93 % of control

SMILES: CCc1nc(N)nc(N)c1-c1ccc(Cl)cc1
- T/C (dose: 9.0 mg/kg/injection, schedule: Q01DX Z (ip), vehicle: carboxymethylcellulose (CMC)): 92 % of control
- T/C (dose: 18.0 mg/kg/injection, schedule: Q01DX Z (ip), vehicle: carboxymethylcellulose (CMC)): 96 % of control
- T/C (dose: 36.0 mg/kg/injection, schedule: Q01DX Z (ip), vehicle: carboxymethylcellulose (CMC)): 95 % of control

SMILES: O=P1(N(CCCl)CCCl)NCCCO1 (stereo not drawn)
- T/C (dose: 11.3 mg/kg/injection, schedule: Q01DX010 (ip), vehicle: saline): 100 % of control
- T/C (dose: 12.5 mg/kg/injection, schedule: Q01DX Z (ip), vehicle: saline): 98 % of control and 103 % of control
- T/C (dose: 22.5 mg/kg/injection, schedule: Q01DX Z (ip), vehicle: saline): 174 % of control
- T/C (dose: 45.0 mg/kg/injection, schedule: Q01DX010 (ip), vehicle: saline): 152 % of control
- T/C (dose: 90.0 mg/kg/injection, schedule: Q01DX010 (ip), vehicle: saline): 87 % of control
- T/C (dose: 100.0 mg/kg/injection, schedule: Q01DX Z (ip), vehicle: saline): 88 % of control and 109 % of control
- T/C (dose: 200.0 mg/kg/injection, schedule: Q01DX Z (ip), vehicle: saline): 88 % of control and 103 % of control

SMILES: [I][Hg][CH2]C1COC([CH2][Hg][I])CO1 (stereo not drawn)
- T/C (dose: 0.8 mg/kg/injection, schedule: Q01DX Z (ip), vehicle: methylcellulose (MC)): 94 % of control
- T/C (dose: 1.6 mg/kg/injection, schedule: Q01DX Z (ip), vehicle: methylcellulose (MC)): 94 % of control
- T/C (dose: 6.25 mg/kg/injection, schedule: Q01DX010 (ip), vehicle: saline): 101 % of control
- T/C (dose: 12.5 mg/kg/injection, schedule: Q01DX010 (ip), vehicle: saline): 103 % of control

SMILES: O=C(Nc1ccc(C2=NCCCN2)cc1)c1ccc(C(=O)Nc2ccc(C3=NCCCN3)cc2)cc1
- T/C [10]: 222 % of control and 252 % of control
- T/C [11]: 124 % of control and 242 % of control
- T/C [1]: 208 % of control
- T/C [2]: 122 % of control
- T/C [12]: 114 % of control and 93 % of control
- T/C [3]: 114 % of control
- T/C [13]: 100 % of control
- T/C (dose: 16.0 mg/kg/injection, schedule: Q01DX010 (ip), vehicle: other): 93 % of control
- T/C (dose: 20.0 mg/kg/injection, schedule: Q01DX Z (ip), vehicle: carboxymethylcellulose (CMC)): 98 % of control
- T/C [9]: 96 % of control

SMILES: Clc1ccc(C(c2ccccc2Cl)C(Cl)Cl)cc1 (stereo not drawn)
- T/C (dose: 62.5 mg/kg/injection, schedule: Q01DX Z (sc), vehicle: steriod suspending solution): 105 % of control
- T/C (dose: 125.0 mg/kg/injection, schedule: Q01DX Z (sc), vehicle: steriod suspending solution): 99 % of control
- T/C (dose: 250.0 mg/kg/injection, schedule: Q01DX Z (sc), vehicle: steriod suspending solution): 107 % of control
- T/C (dose: 500.0 mg/kg/injection, schedule: Q01DX Z (sc), vehicle: steriod suspending solution): 110 % of control

SMILES: Cc1c2oc3c(C)ccc(C(=O)N[C@@H]4C(=O)N[C@H](C(C)C)C(=O)N5CCC[C@H]5C(=O)N(C)CC(=O)N(C)[C@@H](C(C)C)C(=O)O[C@H]4C)c3nc-2c(C(=O)N[C@@H]2C(=O)N[C@H](C(C)C)C(=O)N3CCC[C@H]3C(=O)N(C)CC(=O)N(C)[C@@H](C(C)C)C(=O)O[C@H]2C)c(N)c1=O (I: [aThr][dV]P[Sar][NMeV] / II: [aThr][dV]P[Sar][NMeV]; ester I:1-I:C, II:1-II:C; linker I:N-II:N via Actinocin(9to1))
- T/C (dose: 12.0 micrograms/kg/injection, schedule: Q01DX Z (ip), vehicle: saline): 157 % of control
- T/C (dose: 12.5 micrograms/kg/injection, schedule: Q01DX Z (ip), vehicle: saline): 103 % of control
- T/C (dose: 32.0 micrograms/kg/injection, schedule: Q01DX Z (ip), vehicle: saline): 92 % of control and 104 % of control
- T/C [8]: 114 % of control and 117 % of control
- T/C (dose: 63.0 micrograms/kg/injection, schedule: Q01DX Z (ip), vehicle: saline): 98 % of control and 104 % of control
- T/C (dose: 125.0 micrograms/kg/injection, schedule: Q01DX Z (ip), vehicle: saline): 117 % of control and 101 % of control
